Measurements from US20120122730A1, “Methods for Quantitative Analyses of Kinase Inhibitor Selectivity Using Small Size Panels” (priority 2010, published 2012).

Tested on: panel of 287 distinct human protein kinases, three lipid kinases, and 27 disease-relevant mutant variants
Test: Weighted selectivity score from competition binding assays against a kinase panel
Settings: Kd thresholds <100 nM, <1 μM, <3 μM weighted; panel of 317 assays; FIG. 7
Experimental: In one embodiment, a kinase subset may be determined by using a computational method that can extract knowledge from large amounts of data from known cancer drug designs and find a subset of kinases. A first step in determining a kinase subset involves the use of data from competition binding assays where kinase inhibitors are evaluated against a panel of protein kinases. For each interaction, a quantitative dissociation constant (Kd) is needed.
In one embodiment, a quantitative description, called a weighted selectivity score, is developed for assessing kinome-wide compound reactivities by suitably coarse-graining the binding-affinity vector. […] The weighted selectivity score (normalized or not) is an unbiased measure that enables quantitative comparisons between compounds and the detailed differentiation and analysis of interaction patterns. […]
To validate a method of the present disclosure, data from a previous competition binding assays was used wherein 38 kinase inhibitors were evaluated against a panel of 287 distinct human protein kinases, three lipid kinases, and 27 disease-relevant mutant variants. […] Each compound was screened against the panel of 317 assays at a single concentration of 10 μM to identify candidate kinase targets, and for each interaction observed in this primary screen a quantitative dissociation constant was determined.

## COc1ccc(COc2ccc(Cc3cnc(N)nc3N)cc2OC)cc1 [GW-2580]
  weighted selectivity score (overall score): 3.5
